Test results: patent publication US20030119895A1, “Methods using a combination of a 3-heteroaryl-2-indolinone and a cyclooxygenase-2 inhibitor for the treatment of neoplasia” (Pharmacia Corporation, priority 1998, published 2003)

Tests used:
Format in all cases: cell-based
[1] = tested on: HUV-EC-C cells (human umbilical vein endothelial cells); assay: HUV-EC-C Assay, VEGF-stimulated [3H] thymidine incorporation; conditions: Mitogenesis in Endothelial Cells
[2] = tested on: HUV-EC-C cells (human umbilical vein endothelial cells); assay: HUV-EC-C Assay, a-FGF (ECGF)-stimulated [3H] thymidine incorporation; conditions: Mitogenesis in Endothelial Cells
Method: The following protocol may also be used to measure the composition's activity:
1. […] After cells have detached from the flask, add an equal volume of assay medium and transfer to a 50 ml sterile centrifuge tube (Fisher Scientific; catalogue no. 05-539-6).
2. Wash the cells with about 35 ml assay medium in the 50 ml sterile centrifuge, tube by adding the assay medium, centrifuge for 10 minutes at approximately 200× g, aspirate the supernatant, and resuspend with 35 ml D-PBS. Repeat the wash two more times with D-PBS, resuspend the cells in about 1 ml assay medium/15 cm^2 of tissue culture flask. Assay medium consists of F12K medium (Gibco BRL; catalogue no. 21127-014)+0.5% heat-inactivated fetal bovine serum. Count the cells with a Coulter Counter.RTM.v Coulter Electronics, Inc.) and add assay medium to the cells to obtain a concentration of 0.8-1.0×10^5 cells/ml.
3. Add cells to 96-well flat-bottom plates at 100 μl/well or 0.8-1.0×10^4 cells/well; incubate about 24 h at 37° C., 5% CO2.
1. Make up two-fold drug titrations in separate 96-well plates, generally 50 μM on down to 0 μM. Use the same assay medium as mentioned in day 0, step 2 above. Titrations are made by adding […] of drug at 200 μM (4× the final well concentration) to the top well of a particular plate column. Since the stock drug concentration is usually 20 mM in DMSO, the 200 μM drug concentration contains 2% DMSO. Therefore, diluent made up to 2% DMSO in assay medium (F12K+0.5% fetal bovine serum) is used as diluent for the drug titrations in order to dilute the drug but keep the DMSO concentration constant. Add this diluent to the remaining wells in the column at 60 μl/well. Take 60 μl from the 120 μl of 200 μM drug dilution in the top well of the column and mix with the 60 μl in the second well of the column. Take 60 μl from this well and mix with the 60 μl in the third well of the column, and so on until two-fold titrations are completed. When the next-to-the-last well is mixed, take 60 μl of the 120 μl in this well and discard it. Leave the last well with 60 μl of DMSO/media diluent as a non-drug-containing control. Make 9 columns of titrated drug, enough for triplicate wells each for 1) VEGF (obtained from Pepro Tech Inc., catalogue no. 100-200, 2) endothelial cell growth factor (ECGF) (also known as acidic fibroblast growth factor, or aFGF) (obtained from Boehringer Mannheim Biochemica, catalogue no. 1439 600), and assay media control. ECGF comes as a preparation with sodium heparin.
2. Transfer 50 μl/well of the drug dilutions to the 96-well assay plates containing the 0.8-1.0×10^4 cells/100 μl/well of the HUV-EC-C cells from day 0 and […] incubate ~2 h at 37° C., 5% CO2.
3. In triplicate, add 50 μl/well of 80 ng/ml VEGF, 20 ng/ml ECGF, or media control to each drug condition. As with the drugs, the growth factor concentrations are 4× the desired final concentration. Use the assay media from day 0 step 2 to make the concentrations of growth factors. Incubate approximately 24 hours at 37° C., 5% CO2. Each well will have 50 μl drug dilution, 50 μl growth factor or media, and 100 ul cells,=200 ul/well total. Thus the 4× concentrations of drugs and growth factors become 1× once everything has been added to the wells.
1. Add ^3H-thymidine (Amersham; catalogue no. TRK-686) at 1 μCi/well (10 μl/well of 100 μCi/ml solution made up in RPMI media+10% heat-inactivated fetal bovine serum) and incubate about 24 h at 37° C., 5% CO2.
Note: ^3H-thymidine is made up in RPMI media because all of the other applications for which we use the ^3H-thymidine involve experiments done in RPMI. The media difference at this step is probably not significant. RPMI was obtained from Gibco BRL, catalogue no. 11875-051.
1. Freeze plates overnight at −20° C.
1. Thaw plates and harvest with a 96-well plate harvester (Tomtec Harvester 96.RTM.) onto filter mats (Wallac; catalogue no. 1205-401); read counts on a Wallac Betaplate™ liquid scintillation counter.

[3] = tested on: FGFR; assay: FGF ligand-induced BrdU incorporation, mitogenesis in 3T3/EGFR cells

IC50 ([1]; Homo sapiens, HUVEC) [µM] | Structure (SMILES) | IC50 ([2]; Homo sapiens, HUVEC) [µM] | further results
4.8 | COc1cccc(C=C2C(=O)Nc3ccccc32)c1OC [SU4794, 3-(2,3-dimethoxybenzylidenyl)-2-indolinone] | 35.7 | 
43.2 | O=C1Nc2ccccc2C1=Cc1ccco1 [SU4798, 3-[(furan-2-yl)methylene]-2-indolinone] |  | 
34.3 | CN(C)c1ccc(C=C2C(=O)Nc3ccc(Cl)cc32)cc1 [SU4967, 5-Chloro-3-(4-dimethylaminobenzylidenyl)-2-indolinone] | 16.3 | IC50 [3]: 4.9 µM
5.1 | O=C1Nc2ccccc2C1=Cc1ccc(F)cc1 [SU5205, 3-(4-Fluorobenzylidenyl)-2-indolinone] | 11.8 | 
0.9 | Cc1c(C=O)[nH]c(C=C2C(=O)Nc3ccccc32)c1C [SU5405, 3-[(3,4-Dimethyl-2-formylpyrrole-5-yl)methylene)-2-indolinone] | 0.6 | 
< 0.8 | Cc1c[nH]c(C=C2C(=O)Nc3ccccc32)c1C [SU5406, 3-[(3,4-Dimethylpyrrol-2-yl)methylene]-2-indolinone] |  | 
13.6 | O=C1Nc2ccccc2C1=Cc1sccc1Br [SU5418, 3-[(3-Bromothiene-2-yl)methylene]-2-indolinone] | 40 | 
39.8 | O=C1Nc2ccccc2C1=Cc1ccc(Br)o1 [SU5438, 3-[(5-Bromofuran-2-yl)methylene]-2-indolinone] | 33 | 
20 | CCc1c(C=C2C(=O)Nc3ccccc32)[nH]c(C(=O)O)c1C [SU5455, 3-[(5-Carboxy-3-ethyl-4-methylpyrrol-2-yl)methylene]-2-indolinone] | 20 | 
< 0.07 | O=C1Nc2ccccc2C1=Cc1cccn1-c1cc(Cl)cc(Cl)c1 [SU5461, 3-{[1-(3,5-Dichlorophenyl)pyrrol-2-yl]methylene}-2-indolinone] | < 0.07 | 

Continued, compound first:

Structure (SMILES) | IC50 ([1]; Homo sapiens, HUVEC) [µM] | IC50 ([2]; Homo sapiens, HUVEC) [µM] | further results
COc1ccc(Br)cc1C=C1C(=O)Nc2ccccc21 [SU4796, 3-(3-bromo-6-methoxybenzylidenyl)-2-indolinone] |  |  | IC50 [1]: 30.7 µM; IC50 [2]: 35.8 µM
CC(=O)Nc1ccc(C=C2C(=O)Nc3ccccc32)cc1 [SU4799, 3-(4-acetamidobenzylidenyl)-2-indolinone] | 19.9 |  | 
COc1ccccc1C=C1C(=O)Nc2ccccc21 [SU4949, 3-(2-Methoxybenzylidenyl)-2-indolinone] |  |  | IC50 [1]: 3.4 µM; IC50 [2]: 3.7 µM
CN(C)c1ccc(C=C2C(=O)N(C)c3ccccc32)cc1 [SU4952, 3-(4-Dimethylaminobenzylidenyl)-1-methyl-2-indolinone] | 25.6 | 19.3 | 
O=C1Nc2ccc(Cl)cc2C1=Cc1ccc(Br)cc1 [SU4972, 3-(4-Bromobenzylidenyl)-5-chloro-2-indolinone] |  |  | IC50 [2]: 1.4 µM
CCCCN(CCCC)c1ccc(C=C2C(=O)Nc3ccccc32)cc1 [SU4979, 3-(4-Di-n-butylaminobenzylidenyl)-2-indolinone] | 4.4 | 4.9 | 
O=C1Nc2ccccc2C1=Cc1ccc(N2CCOCC2)cc1 [SU4981, 3-[4-(Morpholin-4-yl)benzylidenyl]-2-indolinone] | 0.6 |  | IC50 [3]: 10 µM
O=C1Nc2ccccc2C1=Cc1ccc(Cl)c(Cl)c1 [SU5201, 3-(3,4-Dichlorobenzylidenyl)-2-indolinone] |  |  | IC50 [1]: 2.5 µM; IC50 [2]: 2.3 µM
O=C1Nc2ccccc2C1=Cc1cccs1 [SU5208, 3-[(Thien-2-yl)methylene]-2-indolinone] | 2.9 | 130 | 
O=C1Nc2ccccc2C1=Cc1ccc(-c2cc(C(F)(F)F)cc(C(F)(F)F)c2)o1 [SU5217] |  |  | IC50 [1]: 9.6 µM; IC50 [2]: 10.5 µM
CN(C)c1c(C=C2C(=O)Nc3ccccc32)cc(C=C2C(=O)Nc3ccccc32)c(N(C)C)c1C#N [SU5218, 2,6-Di-(dimethylamino)-3,5-di-[(indolin-2-one-3-ylidenyl)methyl]-phenylcyanide] | 2.4 | 2.7 | 
CCOC(=O)c1c(C)[nH]c(C=C2C(=O)Nc3ccccc32)c1C [SU5408, 3-[(2,4-Dimethyl-3-ethoxycarbonylpyrrol-5-yl)methylene]-2-indolinone] | < 0.8 | 22.7 | 
O=C1Nc2ccccc2C1=Cc1ccc(I)o1 [SU5409] |  |  | IC50 [1]: 26 µM
CSc1ccc(C=C2C(=O)Nc3ccccc32)s1 [SU5419, 3-[(2-Methylmercaptothien-5-yl)methylene]-2-indolinone] | 0.7 |  | 
Cc1cc(C=C2C(=O)Nc3ccccc32)oc1C [SU5421, 3-[(2,3-Dimethylfuran-5-yl)methylene]-2-indolinone] | 11.4 |  | 
O=C1Nc2ccccc2C1=Cc1ccco1 [SU5429, 3-[(Furan-2-yl)methylene]-2-indolinone] | 27.6 |  | 
O=C1Nc2ccccc2C1=Cc1ccc([N+](=O)[O-])o1 [SU5432, 3-[(2-Nitrofuran-5-yl)methylene]-2-indolinone] | 0.16 | 0.14 | 
CCc1ccc(C=C2C(=O)Nc3ccccc32)s1 [SU5451, 3-[(2-Ethylthien-5-yl)methylene]-2-indolinone] | 1.2 | 30 | 
CCOC(=O)CCc1c(C(=O)OCC)[nH]c(C=C2C(=O)Nc3ccccc32)c1CC(=O)OCC [SU5454, 3-[(5-Ethoxycarbonyl-4-ethoxycarbonylethyl-3-ethoxycarbonylmethylpyrrol-2-yl)methylene]-2-indolinone] | 3.8 | 3.4 | 
O=C1Nc2ccccc2C1=Cc1cccn1-c1ccc(Cl)cc1 [SU5462] |  |  | IC50 [1]: 0.5 µM; IC50 [2]: 0.8 µM
CCOC(=O)c1c[nH]c(C=C2C(=O)Nc3ccccc32)c1C [SU5463] | 0.14 | 7.9 | 
Cn1cccc1C=C1C(=O)Nc2ccccc21 [SU5464, 3-[(1-Methylpyrrol-2-yl)methylene]-2-indolinone] | 3.8 | 12.9 | 
CCOC(=O)CCc1c(C=C2C(=O)Nc3ccccc32)[nH]c(C(=O)OCC)c1CC(=O)OCC [SU5465, 3-[(5-Ethoxycarbonyl-3-ethoxycarbonylethyl-4-ethoxylcarbonylmethylpyrrol-2-yl)methylene]-2-indolinone] |  |  | IC50 [3]: 25 µM
Cc1cnc(C=C2C(=O)Nc3ccccc32)[nH]1 [SU5468, 3-[(5-Methylimidazol-2-yl)methylene]-2-indolinone] | 0.54 | 8.7 | 
Cc1cnc(C=C2C(=O)Nc3ccccc32)s1 [SU5469, 3-[(5-Methylthiazol-2-yl)methylene]-2-indolinone] |  |  | IC50 [3]: 15 µM
Cc1cc(C=C2C(=O)Nc3ccccc32)[nH]n1 [SU5472, 3-[(3-Methylpyrazol-5-yl)methylene]-2-indolinone] | 2 | 5 | 
O=C1Nc2ccccc2C1=Cc1c[nH]cn1 [SU5473, 3-[(Imidazol-4-yl)methylene]-2-indolinone] |  |  | IC50 [3]: 50 µM
O=C1Nc2ccccc2C1=Cc1c(Br)cnn1Cc1ccc(Cl)cc1 [SU5475, 3-[(4-Bromo-1-(4-chlorobenzyl)pyrazol-5-yl)methylene]-2-indolinone] |  |  | IC50 [3]: 9 µM
CCc1c(C)[nH]c(C=C2C(=O)Nc3ccccc32)c1C [SU5477, 3-[(4-Ethyl-3,5-dimethylpyrrol-2-yl)methylene]-2-indolinone] | 0.05 | 37.8 | 
